Laboratory results from patent US20090220435A1, “TIGHT JUNCTION MODULATING PEPTIDE COMPONENTS FOR ENHANCING MUCOSAL DELIVERY OF THERAPEUTIC AGENTS” (priority 2005, published 2009).

How the values were obtained:
[1] = system: in vitro epithelial tissue model (EpiAirway™); assay: Drug permeation (Papp) in the in vitro epithelial tissue model
From the text: A. A “kit” of 24 EpiAirway™ units can routinely be employed for evaluating five different formulations, each of which is applied to quadruplicate wells. Each well is employed for determination of permeation kinetics (4 time points), transepithelial electrical resistance (TER). An additional set of wells is employed as controls, which are sham treated during determination of permeation kinetics, but are otherwise handled identically to the test sample-containing units for determinations of transepithelial resistance and viability.
B. In all experiments, the mucosal delivery formulation to be studied is applied to the apical surface of each unit in a volume of 100 μL, which is sufficient to cover the entire apical surface. An appropriate volume of the test formulation at the concentration applied to the apical surface (no more than 100 μL is generally needed) is set aside for subsequent determination of concentration of the active material by ELISA or other designated assay.
D. In order to minimize potential sources of error and avoid any formation of concentration gradients, the units are transferred from one 0.9 mL-containing well to another at each time point in the study. These transfers are made at the following time points, based on a zero time at which the 100 μL volume of test material was applied to the apical surface: 15 minutes, 30 minutes, 60 minutes, and 120 minutes.
F. At the completion of each time point, the medium is removed from the well from which each unit was transferred, and aliquotted into two tubes (one tube receives 700 μL and the other 200 μL) for determination of the concentration of permeated test material and, in the event that the test material is cytotoxic, for release of the cytosolic enzyme, lactate dehydrogenase, from the epithelium. These samples are kept in the refrigerator if the assays are to be conducted within 24 hours, or the samples are subaliquotted and kept frozen at −80° C. until thawed once for assays. Repeated freeze-thaw cycles are to be avoided.
EIA kit (p/n S-1178(EIAH6101) was purchased from Peninsula Laboratories Inc. (Division of BACHEM, San Carlos, Calif., 800-922-1516). 17×120 mm polypropylene conical tubes (p/n 352097, Falcon, Franklin Lakes, N.J.) were used for all sample preparations. Eight standards were used for PTH quantitation. The rest of the assay procedure was the same as the kit inserts.
The instant study was designed to evaluate the effect of PN159 itself or in combination with additional permeation enhancers on PTH permeation. The PN159 concentrations evaluated are 25, 50, and 100 μM. The additional permeation enhancers are 45 mg/ml M-β-CD, 1 mg/ml DDPC, and 1 mg/ml EDTA. Sorbitol was used as a tonicifier (146-190 mM) to adjust the osmolarity of formulations to 220 mOsm/kg. The formulation pH was fixed at 4.5. PTH was chosen as a model peptide in this example. 2 mg/ml PTH was combined with PN159 with or without additional permeation enhancers. The combination was tested using an in vitro epithelial tissue model to monitor PTH permeation, transepithelial electrical resistance (TER), and the cytotoxicity of the formulation by LDH assay.
The concentrations of MC-4RA in the basolateral media was analyzed by the RP-HPLC using a C18 RP chromatography with a flow rate of 1 mL/minute and a column temperature of 25° C. • Solvent A: 0.1% TFA in water; Solvent B: 0.1% TFA in ACN • Injection Volume: 50 μL • Detection: 220 nm • RUN TIME: 15 MIN
Galantamine concentration in the formulation and in the basolateral media (permeation samples) was determined using an isocratic LC (Waters Alliance) method with UV detection. • Column: Waters Symmetry Shield, C18, 5 um, 25×0.46 cm • Mobile phase: 5% ACN in 50 mM ammonium formate, pH 3.0 • Flow rate: 1 ml/min • Column temperature: 30° C. • Calibration curve: 0-400 μg/ml Galantamine HBr • Detection: UV at 285 nm

[2] = system: EpiAirway™ human-derived tracheal/bronchial epithelial cells; assay: Transepithelial electrical resistance (TER) across EpiAirway epithelial cell layer; format: cell-based
[3] = system: EpiAirway™ human-derived tracheal/bronchial epithelial cells; assay: FITC-dextran / sample permeation across epithelial cell monolayer; format: cell-based
Method: A FITC labeled dextran with a molecular weight 3000 (FD3) was used to assess the efficacy of individual TJMP on epithelial cell monolayer permeation. The tissue insert plates were transferred to a 96-well receiver plate containing 200 μl of DPBS++ as basal media. The apical surface of each tissue culture insert was incubated with a 20 μl sample of a single test formulation (refer to Table 24 of Example 25 for details of test formulations) for one hour at 37° C. in the dark on a shaker (˜100 rpm). Following the 1-hour incubation period, underlying basal media samples were taken from each tissue culture insert and temporarily stored in the dark at room temperature until FD3 levels were quantified by fluorescence spectroscopy. For FD3 measurements, a 150 μl of basal media sample was transferred to a black, clear bottom 96-well plate. Fluorescence emission at 528/20 following excitation at 485/20 were measured using a FL×800 fluorescence plate reader from Biotek Instruments.
Each tissue insert will be placed in an individual well containing 1 ml of MatTek basal media. On the apical surface of the inserts, 25 μl of test formulation will be applied according to study design, and the samples will be placed on a shaker (˜100 rpm) for 1.5 h at 37° C. FITC-labeled dextran solution is added to inserts apically and a fluorescence measurement is made from the basolateral media after the incubation period. The concentration of FITC-dextran is expressed as a percent of the starting material applied to the cells. A FITC labeled dextran with a molecular weight 4000 (MW4000) was used to assess cargo size limitations on individual TJMP permeation. Of note, various size FITC-labeled dextrans are available to perform size limitation studies.
Fluorescein isothiocyanate (FITC) labeled Dextrin (MW 3,000) was added to the treatment mixture at 0.1-1 mg/ml. The treatment mixture was added to the side of the apical wall, and the plates were incubated at 37° C. in an orbital shaker (New Brunswick Scientific, Edison, N.J.) for the designated time at 100 rpm. At the end of incubation, triplicates of 200 ul of the basal medium were transferred to a dark-wall fluorescent reading plate. Fluorescent intensity at wavelength 470 nm was measured by a microplate fluorescence reader FLx800 (BIO-TEK INSTRUMENTS, INC, Winooski, Vt.). Serial dilutions of standard were used to obtain a standard curve and calculate the concentration. Permeability was measured in two ways, as the ratio of donor mass (the apical chamber) or as the ratio of acceptor mass (the basal chamber), expressed in percentage.

[4] = system: EpiAirway™ human-derived tracheal/bronchial epithelial cells; assay: Cytotoxicity (LDH assay); format: cell-based
Method: The amount of cell death was assayed by measuring the loss of lactate dehydrogenase (LDH) from the cells using a CytoTox 96 Cytoxicity Assay Kit (Promega Corp., Madison, Wis.). Fifty microliters of sample was loaded into a 96-well assay plates. Fresh, cell-free culture medium was used as a blank. 50 μl of substrate solution was added to each well and the plates incubated for 30 minutes at room temperature in the dark. Following incubation, 50 μl of stop solution was added to each well and the plates read on an optical density plate reader at 490 nm.
The amount of cell death will be assayed by measuring the loss of lactate dehydrogenase (LDH) from the cells using a CytoTox 96 Cytotoxicity Assay Kit (Promega Corp., Madison, Wis.). Fifty microliters of sample will be loaded into a 96-well assay plates. Fresh, cell-free culture medium will be used as a blank. Fifty microliters of substrate solution will be added to each well and the plates incubated for 30 minutes at room temperature in the dark. Following incubation, 50 μl of stop solution will be added to each well and the plates read on an optical density plate reader at 490 nm. The measurement of LDH release into the basolateral media indicates relative cytotoxicity of the samples. One hundred percent lysis of control inserts with 0.3% Octylphenolpoly(ethyleneglycolether)×(TritonX-100) allows LDH values to be expressed as percentage of total lysis.
In some embodiments, The amount of cell death was assayed by measuring the release of lactate dehydrogenase (LDH) from the cells into the apical medium using a CytoTox 96 Cytotoxicity Assay Kit (Promega Corp., Madison, Wis.). One percent Octylphenolpoly (ethyleneglycolether)×(Triton X-100™) diluted in phosphate buffered saline (PBS) causes 100% lysis in cultured cells and served herein as a positive control for the LDH assay. Following the one hour incubation period with a test formulation (refer to Table 24 of Example 25 for details of test formulations), the total liquid volume of each insert was brought to a final volume of 200 μl with culture medium. The apical medium was then mixed by pipetting four times with a multichannel pipette set to a 100 μl volume. After mixing, a 100 μl sample from the apical side of each insert was transferred to a new 96-well plate. The apical media samples were sealed with a plate sealer and stored at room temperature for same day analysis or stored overnight at 4° C. for analysis the next day. To measure LDH levels, 5 μl of the 100 μl apical media sample was diluted in 45 μl DPBS in a new 96-well plate. Fresh, cell-free culture medium will be used as a blank. Fifty microliters of substrate solution was added to each well and incubated for 30 minutes at room temperature away from direct light. Following the 30 minute incubation, 50 μl of stop solution was added to each well. Optical density (OD) was measured at 490 nm with a uQuant absorbance plate reader from Biotek Instruments. The measurement of LDH release into the apical media indicates relative cytotoxicity of the samples. Percent cytotoxicity for each test formulation was calculated by subtracting the measured absorbance of the PBS control (basal level of LDH release) from the measured absorbance of the individual test formulation and then dividing that value by the measured absorbance for the 1% Triton X-100™ positive control, multiplied by 100.
An LDH assay was used to assess the cytotoxicity of the treatments. The LDH level was determined by CytoTox96 Non-Radioactive Cytotoxic Assay (Promega, Madison, Wis.) following the manufacturer's protocol. For basal-lateral LDH levels, triplicates of 50 ul of the basal medium were used to determine the LDH level. For apical LDH level, 150 ul of the diluted apical sample was removed by adding 150 ul of Epi-CM to the apical chamber, the medium was mixed by pipeting up and down, and 150 ul medium was removed and diluted 2× (for a final 8-fold dilution) for assay in triplicates of 50 ul.

[5] = 1000 μM, additional assay (in parenthesis)
[6] = 15 minute treatment at the peptide's optimal concentration
[7] = 60 minute treatment at the peptide's optimal concentration

In the case of `CC(C)C[C@H](NC(=O)[C@H](CCCCN)NC(=O)CNC(=O)[C@H](CC(C)C)NC(=O)[C@@H](NC(=O)[C@@H]1CSSC[C@H](N)C(=O)N[C@@H](CO)C(=O)N[C@@H](CC(N)=O)C(=O)N[C@@H](CC(C)C)C(=O)N[C@@H](CO)C(=O)N[C@@H]([C@@H](C)O)C(=O)N1)C(C)C)C(=O)N[C@@H](CO)C(=O)N[C@@H](CCC(N)=O)C(=O)N[C@@H](CCC(=O)O)C(=O)N[C@@H](CC(C)C)C(=O)N[C@@H](Cc1c[nH]cn1)C(=O)N[C@@H](CCCCN)C(=O)N[C@@H](CC(C)C)C(=O)N[C@@H](CCC(N)=O)C(=O)N[C@H](C(=O)N[C@@H](Cc1ccc(O)cc1)C(=O)N1CCC[C@H]1C(=O)N[C@@H](CCCNC(=N)N)C(=O)N[C@H](C(=O)N[C@@H](CC(N)=O)C(=O)N[C@H](C(=O)NCC(=O)N[C@@H](CO)C(=O)NCC(=O)N[C@H](C(=O)N1CCC[C@H]1C(N)=O)[C@@H](C)O)[C@@H](C)O)[C@@H](C)O)[C@@H](C)O` [Calcitonin, salmon calcitonin], the “fold increase in Papp in the presence of PN159” value [1] is reported as 23-47 fold, the Papp ([1]; [PN159] 0 μM, galantamine 40 mg/mL pH 5.0, calcitonin 1 mg/mL pH 3.5, PTH1-34 1 mg/mL pH 4.5, PYY3-36 1 mg/mL pH 5.0) is reported as 0.097 ×10⁻⁶ cm/s and the Papp ([1]; [PN159] 0 μM, galantamine 40 mg/mL pH 5.0, calcitonin 1 mg/mL pH 3.5, PTH1-34 1 mg/mL pH 4.5, PYY3-36 1 mg/mL pH 5.0, listed as calcitonin) is reported as “about 1×10^−7 cm/s”. For the same molecule, the Papp ([1]; [PN159] 25 μM, galantamine 40 mg/mL pH 5.0, calcitonin 1 mg/mL pH 3.5, PTH1-34 1 mg/mL pH 4.5, PYY3-36 1 mg/mL pH 7.0) was 2.2 ×10⁻⁶ cm/s and the Papp ([1]; [PN159] 50 μM, galantamine 40 mg/mL pH 5.0, calcitonin 1 mg/mL pH 3.5, PTH1-34 1 mg/mL pH 4.5) was 3.3 ×10⁻⁶ cm/s.
In the case of CNGRCGGKKKLKLLLKLL [PN679], the “% T0 TER” value ([2]; 25 μM, 1 h, pH 7) is reported as 70%, the “% T0 TER” value ([2]; 100 μM, 1 h, pH 7) is reported as 7% and the “% T0 TER” value ([2]; 250 μM, 1 h, pH 7) is reported as 2%. The “% T0 TER” value ([2]; 500 μM, 1 h, pH 7) was −2%, the “% T0 TER” value ([2]; 1000 μM, 1 h, pH 7) was −2% (−2%) and the “% T0 TER” value [2, 5] was −2% (−2%). For the same molecule, the “% FD3 Permeation” value ([3]; 25 μM, 1 h, FITC dextran MW 3000) was 0%, the “% FD3 Permeation” value ([3]; 100 μM, 1 h, FITC dextran MW 3000) was 7% and the “% FD3 Permeation” value ([3]; 250 μM, 1 h, FITC dextran MW 3000) was 8%. The “% FD3 Permeation” value ([3]; 500 μM, 1 h, FITC dextran MW 3000) was 10%, the “% FD3 Permeation” value ([3]; 1000 μM, 1 h, FITC dextran MW 3000) was 10% (10%) and the “% FD3 Permeation” value [3, 5] was 10% (10%). It also gave an optimal dose ([3]; based on TER reduction, sample permeation and LDH release) of 100 µM.
“Maleimide-GLGSLLKKAGKLKLKQPKSKRKV-amide [PN283]” showed a TER reduction ([2]; 100 μM peptide) of 39%, a TER reduction ([2]; 500 μM peptide) of 86% and a TER reduction ([2]; 1000 μM peptide) of 92%. For the same molecule, the percent permeation ([3]; 100 μM peptide) was 0.7%, the percent permeation ([3]; 500 μM peptide) was 3.9% and the percent permeation ([3]; 1000 μM peptide) was 5.2%. For the same molecule, the “% Perm 15” value [3, 6] was 1.06%, the “% Perm 60” value [3, 7] was 4.99% and the “permeation of FITC-dextran MW4000” value ([3]; 60 minutes of incubation, peptide at optimal concentration) was “approximately 5%”. The “Optimal Concentration” value ([3]; greatest TER reduction with highest permeability and no significant cytotoxicity) was 1000 µM, the LDH15 [4, 6] was 0.0007 and the LDH60 [4, 7] was 0.032.
